≈ marks a conversion by molar mass, not a printed value.
What was measured:
[1] = system: idiopathic pulmonary fibrosis; conditions: Palmer et al. Chest 2018; cited from earlier work
[2] = Solubility of the different polymorphs in phosphate buffer; format: physicochemical; conditions: for solubility, concentration versus time: pH 7.4 phosphate buffer, 25° C.; for equilibrium solubility relative to Form 1: 24 hours
Experimental: The solubility of the different polymorphs was determined at pH 7.4 in phosphate buffer at 25° C. Samples were analyzed as a function of time for each form to determine the equilibrium values. The residual solids from each sample were analyzed to verify that the form was unchanged during the experiment. The concentration (mg/mL) versus time data is listed below for each form: […]

[3] = Dynamic Vapor Sorption (DVS); format: physicochemical
Experimental: Moisture sorption/desorption isotherms are recorded on a DVS-1 from SURFACE MEASUREMENT SYSTEMS. Two cycles are run at 25° C., in which the Relative Humidity (RH) is stepped from 0 to 95% and back to 0%. The data is evaluated with the software DVSWin V. 2.15.

[4] = Physical stability of solid state forms, examined by FTIR; format: physicochemical; conditions: 80° C./75% RH, 1 week (7 days), open glass vials
Experimental: The physical stability of Forms 1, 2, and 3 was investigated at 80° C./75% RH in order to determine if interconversion was observed. The samples were examined by FTIR after stressing 1 week in open glass vials.

Row | solubility, concentration versus time ([2]; 1 hr) | solubility, concentration versus time ([2]; 2 hr) | solubility, concentration versus time ([2]; 3 hr) | Reversible water uptake ([3]; 25° C.) | Reversible water uptake ([3]; between 0 and 95% RH) | changes in FTIR spectrum (physical stability, interconversion) [4] | 24 hour solubility result, greater than Form 1 ([2]; 24 hour) | equilibrium solubility relative to Form 1 [2] | Structure (SMILES) | rate of decline in forced vital capacity (FVC) compared with placebo [1]
1 | – | – | – | – | – | – | – | – | Cc1noc(-c2ccc(-c3ccc(C4(C(=O)O)CC4)cc3)cc2)c1NC(=O)O[C@H](C)c1ccccc1 [BMS-986020] | significantly slowed
2 | 42 µg/mL (≈ 94.3 µM) | 41 µg/mL (≈ 92 µM) | 42 µg/mL (≈ 94.3 µM) | less than 1% | ~ −0.1 % w/w | unchanged FTIR | – | – | COc1ccc(C(=O)NC2(C(=O)O)Cc3ccccc3C2)cc1OCCc1cccc(C)c1 [Form 1, 2-(4-methoxy-3-(3-methylphenethoxy)benzamido)-2,3-dihydro-1H-indene-2-carboxylic acid] | –
3 | 34 µg/mL (≈ 76.3 µM) | 39 µg/mL (≈ 87.5 µM) | 43 µg/mL (≈ 96.5 µM) | – | – | unchanged FTIR | more than 30% | – | COc1ccc(C(=O)NC2(C(=O)O)Cc3ccccc3C2)cc1OCCc1cccc(C)c1 [Form 2, 2-(4-methoxy-3-(3-methylphenethoxy)benzamido)-2,3-dihydro-1H-indene-2-carboxylic acid] | –
4 | 83 µg/mL (≈ 186 µM) | 93 µg/mL (≈ 209 µM) | 95 µg/mL (≈ 213 µM) | – | – | unchanged FTIR | – | more than double | COc1ccc(C(=O)NC2(C(=O)O)Cc3ccccc3C2)cc1OCCc1cccc(C)c1 [Form 3, 2-(4-methoxy-3-(3-methylphenethoxy)benzamido)-2,3-dihydro-1H-indene-2-carboxylic acid] | –
5 | 79 µg/mL (≈ 177 µM) | 89 µg/mL (≈ 200 µM) | 105 µg/mL (≈ 236 µM) | – | – | – | – | more than double | COc1ccc(C(=O)NC2(C(=O)O)Cc3ccccc3C2)cc1OCCc1cccc(C)c1 [Form 4, 2-(4-methoxy-3-(3-methylphenethoxy)benzamido)-2,3-dihydro-1H-indene-2-carboxylic acid] | –

— patent US12691086B2, “Methods of treating systemic sclerosis and idiopathic pulmonary fibrosis” (HORIZON THERAPEUTICS IRELAND DAC, priority 2022, dated 2026)
